Where a name gives a salt, the structure may show the parent alone.
Key:
[1] = biological target: T1, human neurokinin-3 receptors expressed in CHO cell lines (Homo sapiens, UniProt P29371); assay: Binding affinity in hNK-3-CHO; conditions: human NK-3 receptors in CHO cell lines; radioligand [125I]-[Me-Phe7]-NKB
T1 construct: expressed in transfected cells; host or cells: CHO cells
T1 sequence (P29371 1-465): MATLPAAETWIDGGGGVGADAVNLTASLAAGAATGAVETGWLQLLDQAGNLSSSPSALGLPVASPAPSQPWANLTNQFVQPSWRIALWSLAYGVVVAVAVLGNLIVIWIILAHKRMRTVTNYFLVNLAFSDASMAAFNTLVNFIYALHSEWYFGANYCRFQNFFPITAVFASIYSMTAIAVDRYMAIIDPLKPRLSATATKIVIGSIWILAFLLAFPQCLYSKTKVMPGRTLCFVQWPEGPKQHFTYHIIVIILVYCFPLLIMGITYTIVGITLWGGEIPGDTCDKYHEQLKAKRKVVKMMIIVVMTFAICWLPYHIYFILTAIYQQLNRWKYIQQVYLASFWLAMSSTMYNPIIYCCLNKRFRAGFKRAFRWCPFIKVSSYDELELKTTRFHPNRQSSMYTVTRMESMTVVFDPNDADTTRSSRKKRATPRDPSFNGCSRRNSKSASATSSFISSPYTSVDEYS
Experimental: The activity of the compounds of the present invention, as NK3 ligands, is determined by their ability to inhibit the binding of the radiolabelled NK3 ligands. [^125I]-[Me-Phe^7]-NKB or [^3H]-Senktide, to guinea-pig and human NK3 receptors (Renzetti et al. 1991, Neuropeptide, 18, 104-114; Buell et al, 1992, FEBS, 299(1), 90-95; Chung et al, 1994, Biochem. Biophys. Res. Commun., 198(3), 967-972).
The binding assays utilized allow the determination of the concentration of the individual compound required to reduce by 50% the [^125I]-[Me-Phe^7]-NKB and [^3H]-Senktide specific binding to NK3 receptor in equilibrium conditions (IC50).
Binding assays provide for each compound tested a mean IC50 value of 2-5 separate experiments performed in duplicate or triplicate. […] The NK3-antagonist activity of the compounds of the present invention is determined by their ability to inhibit senktide-induced contraction of the guinea-pig ileum (Maggi et al, 1990, Br. J. Pharmacol., 101, 996-1000) and rabbit isolated iris sphincter muscle (Hall et al., 1991, Eur. J. Pharmacol., 199, 9-14) and human NK3 receptors-mediated Ca^++ mobilization (Mochizuki et al. 1994, J. Biol. Chem., 269, 9651-9658). Guinea-pig and rabbit in-vitro functional assays provide for each compound tested a mean KB value of 3-8 separate experiments, where KB is the concentration of the individual compound required to produce a 2-fold rightward shift in the concentration-response curve of senktide. Human receptor functional assay allows the determination of the concentration of the individual compound required to reduce by 50% (IC50 values) the Ca^++ mobilization induced by the agonist NKB. In this assay, the compounds of the present invention behave as antagonists.

melting point | IC50 [1] [nM] | Structure (SMILES)
160 to 170 °C |  | CC[C@H](NC(=O)c1c(OCCCN2CCN(C)CC2)c(-c2ccccc2)nc2ccccc12)c1ccccc1 (as salt: HCl) [Example 31]
86 °C (dec.) |  | CC[C@H](NC(=O)c1c(OCCCN2CCN(c3ccccc3)CC2)c(-c2ccccc2)nc2ccccc12)c1ccccc1 (as salt: HCl) [Example 33]
140 °C (dec.) |  | CC[C@H](NC(=O)c1c(OCCCN2CCN(c3ncccn3)CC2)c(-c2ccccc2)nc2ccccc12)c1ccccc1 (as salt: HCl) [Example 40]
 | 1.6 | CC[C@H](NC(=O)c1c(OCCO)c(-c2ccccc2)nc2ccccc12)c1ccccc1 [Example 2, (S)-N-(α-ethylbenzyl)-3-(2-hydroxyethoxy)-2-phenylquinoline-4-carboxamide]
95 °C (dec.) | 1.2 | CC[C@H](NC(=O)c1c(OCCN2Cc3ccccc3C2)c(-c2ccccc2)nc2ccccc12)c1ccccc1.Cl.Cl [Example 5, (S)-N-(α-ethylbenzyl)-3-[2-(2-isoindolinyl)ethoxy]-2-phenylquinoline-4-carboxamide Dihydrochloride]
159 to 161 °C | 0.8 | CC[C@H](NC(=O)c1c(OCCN2C(=O)Cc3ccccc3C2=O)c(-c2ccccc2)nc2ccccc12)c1ccccc1 [Example 6, (S)-N-(α-ethylbenzyl)-3-(2-homophthalimidoethoxy)-2-phenylquinoline-4-carboxamide]
125 to 128 °C | 3.2 | CC[C@H](NC(=O)c1c(OCCCN2C(=O)c3ccccc3C2=O)c(-c2ccccc2)nc2ccccc12)c1ccccc1 [Example 9, (S)-N-(α-ethylbenzyl)-3-(3-phthalimidopropoxy)-2-phenylquinoline-4-carboxamide]
 | 2.6 | CC[C@H](NC(=O)c1c(OCCCN)c(-c2ccccc2)nc2ccccc12)c1ccccc1 [Example 11, (S)-N-(α-ethylbenzyl)-3-(3-aminopropoxy)-2-phenylquinoline-4-carboxamide Hydrochloride]
153 to 156 °C | 1.7 | CC[C@H](NC(=O)c1c(OCCN2Cc3ccccc3CC2=O)c(-c2ccccc2)nc2ccccc12)c1ccccc1 [Example 14, (S)-N-(α-ethylbenzyl)-3-[2-(1,4-dihydro-3(2H)-isoquinolinon-2-yl)ethoxy]-2-phenylquinoline-4-carboxamide]
80 °C (dec.) |  | CC[C@H](NC(=O)c1c(OCCN2C(=O)CCC2=O)c(-c2ccccc2)nc2ccccc12)c1ccccc1 [Example 15, (S)-N-(α-ethylbenzyl)-3-(2-succinimidoethoxy)-2-phenylquinoline-4-carboxamide]
74 to 78 °C |  | CC[C@H](NC(=O)c1c(OCCN2C(=O)C=CC2=O)c(-c2ccccc2)nc2ccccc12)c1ccccc1 [Example 16, (S)-N-(α-ethylbenzyl)-3-(2-maleimidoethoxy)-2-phenylquinoline-4-carboxamide]
160 to 162 °C | 3.4 | CC[C@H](NC(=O)c1c(OCCN2C(=O)CNC2(C)C)c(-c2ccccc2)nc2ccccc12)c1ccccc1 [Example 17, (S)-N-(α-ethylbenzyl)-3-[2-(2,2-dimethyl-4-oxo-3-imidazolidinyl)ethoxy]-2-phenylquinoline-4-carboxamide]
151 to 155 °C | 0.4 | CC[C@H](NC(=O)c1c(OCCCN2CCN(c3ccccc3OC)CC2)c(-c2ccccc2)nc2ccccc12)c1ccccc1.Cl.Cl [Example 18, (S)-N-(α-ethylbenzyl)-3-{3-[4-(2-methoxyphenyl)piperazin-1-yl]propoxy}-2-phenylquinoline-4-carboxamide Dihydrochloride]
147 to 150 °C | 0.9 | CC[C@H](NC(=O)c1c(OCCN2C(=O)[C@@H](c3ccccc3)NC2(C)C)c(-c2ccccc2)nc2ccccc12)c1ccccc1 [Example 21, (S)-N-(α-ethylbenzyl)-3-{2-[2,2-dimethyl-5-(R)-phenyl-4-oxo-3-imidazolidinyl]ethoxy}-2-phenylquinoiine-4-carboxamide]
71 °C (dec.) | 1.3 | CC[C@H](NC(=O)c1c(OCCN2CCc3ccccc3C2=O)c(-c2ccccc2)nc2ccccc12)c1ccccc1 [Example 22, (S)-N-(α-ethylbenzyl)-3-[2-(3,4-dihydro-1(2H)-isoquinolinon-2-yl)ethoxy]-2-phenylquinoline-4-carboxamide]
142 to 145 °C | 1.1 | CC[C@H](NC(=O)c1c(CN2CCN(c3ccccc3)CC2)c(-c2ccccc2)nc2ccccc12)c1ccccc1 [Example 30]
 | 3.3 | CC[C@H](NC(=O)c1c(OCCCN2CCN(C)CC2)c(-c2ccccc2)nc2ccccc12)c1ccccc1 [Example 31]
 | 0.7 | CC[C@H](NC(=O)c1c(OCCCN2CCN(c3ccccc3)CC2)c(-c2ccccc2)nc2ccccc12)c1ccccc1 [Example 33]
115 to 135 °C | 0.8 | CC[C@H](NC(=O)c1c(OCCCN2CCN(c3cccc(Cl)c3)CC2)c(-c2ccccc2)nc2ccccc12)c1ccccc1 [Example 34]
 | 1.1 | CC[C@H](NC(=O)c1c(OCCCN2CCN(c3ncccn3)CC2)c(-c2ccccc2)nc2ccccc12)c1ccccc1 [Example 40]
100 to 105 °C | 2.7 | CC[C@H](NC(=O)c1c(OCCCN2C(=O)c3nccnc3C2=O)c(-c2ccccc2)nc2ccccc12)c1ccccc1 [Example 42]

Source: patent publication US20020068827A1, “Quinoline-4-carboxamide derivatives, their preparation and their use as neurokinin 3 ( NK-3 ) - and neurokinin 2 ( NK-3 ) receptor antagonists” (SmithKline Beecham S.p.A., priority 1995, published 2002)
